What was measured:
[1] = target: T1, Protein kinase C epsilon type (Homo sapiens, UniProt Q02156); assay: Inhibition of Protein kinase C epsilon
T1 sequence (Q02156 whole entry): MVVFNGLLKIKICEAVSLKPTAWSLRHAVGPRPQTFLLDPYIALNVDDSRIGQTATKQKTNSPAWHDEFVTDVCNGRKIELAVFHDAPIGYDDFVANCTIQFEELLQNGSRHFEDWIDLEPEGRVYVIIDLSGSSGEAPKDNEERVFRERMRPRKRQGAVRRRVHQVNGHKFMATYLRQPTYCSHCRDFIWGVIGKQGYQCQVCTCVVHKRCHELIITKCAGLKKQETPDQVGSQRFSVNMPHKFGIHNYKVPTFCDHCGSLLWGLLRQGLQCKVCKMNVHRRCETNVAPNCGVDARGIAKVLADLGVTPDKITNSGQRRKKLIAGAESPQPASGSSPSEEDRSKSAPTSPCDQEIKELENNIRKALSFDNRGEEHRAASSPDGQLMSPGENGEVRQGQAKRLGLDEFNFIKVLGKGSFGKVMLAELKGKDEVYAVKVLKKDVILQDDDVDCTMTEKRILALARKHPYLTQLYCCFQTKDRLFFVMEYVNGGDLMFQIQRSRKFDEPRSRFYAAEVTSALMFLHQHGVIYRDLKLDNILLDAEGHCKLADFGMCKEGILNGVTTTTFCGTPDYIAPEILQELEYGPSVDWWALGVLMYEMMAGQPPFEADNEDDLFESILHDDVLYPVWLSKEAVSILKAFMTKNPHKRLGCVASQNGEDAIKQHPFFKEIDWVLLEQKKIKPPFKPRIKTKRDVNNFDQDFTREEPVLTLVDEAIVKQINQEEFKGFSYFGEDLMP

[2] = target: Protein kinase C gamma type (Homo sapiens, UniProt P05129); assay: Inhibition Protein kinase C gamma
[3] = target: Protein kinase C eta type (Homo sapiens, UniProt P24723); assay: Inhibition of Protein kinase C eta
[4] = target: Protein kinase C alpha type (Homo sapiens, UniProt P17252); assay: Inhibition of Protein kinase C alpha
[5] = target: T2, Protein kinase C beta type (Homo sapiens, UniProt P05771); assay: Inhibition of Protein kinase C beta 2
[6] = target: cAMP-dependent protein kinase (PKA) (Homo sapiens, UniProt P22694+P17612+P22612); assay: Inhibition of Protein Kinase A; format: protein assay
[7] = target: Protein kinase C delta type (Homo sapiens, UniProt Q05655); assay: Inhibition of Protein kinase C delta
[8] = target: T2, Protein kinase C beta type; assay: Inhibition of Protein kinase C beta 1
[9] = target: T3, Protein kinase C zeta type (Homo sapiens, UniProt Q05513); assay: Inhibition of Protein kinase C zeta
T3 sequence (Q05513 whole entry): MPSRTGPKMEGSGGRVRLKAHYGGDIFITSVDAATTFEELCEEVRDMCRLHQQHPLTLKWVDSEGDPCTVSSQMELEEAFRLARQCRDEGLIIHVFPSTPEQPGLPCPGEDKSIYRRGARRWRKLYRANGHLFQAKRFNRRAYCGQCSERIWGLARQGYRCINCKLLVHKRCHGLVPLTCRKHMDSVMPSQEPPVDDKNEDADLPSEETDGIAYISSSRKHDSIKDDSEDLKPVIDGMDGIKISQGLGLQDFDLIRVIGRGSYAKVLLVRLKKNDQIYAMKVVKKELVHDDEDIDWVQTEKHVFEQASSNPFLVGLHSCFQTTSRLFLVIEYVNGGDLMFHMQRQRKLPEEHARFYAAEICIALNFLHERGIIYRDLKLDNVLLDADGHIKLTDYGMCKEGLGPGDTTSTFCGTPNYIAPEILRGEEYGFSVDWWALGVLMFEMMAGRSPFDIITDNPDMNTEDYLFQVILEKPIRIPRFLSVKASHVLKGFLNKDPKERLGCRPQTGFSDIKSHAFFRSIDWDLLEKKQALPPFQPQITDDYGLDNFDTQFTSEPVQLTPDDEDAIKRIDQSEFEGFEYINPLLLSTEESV

Protein kinase C eta type, sequence (P24723 whole entry): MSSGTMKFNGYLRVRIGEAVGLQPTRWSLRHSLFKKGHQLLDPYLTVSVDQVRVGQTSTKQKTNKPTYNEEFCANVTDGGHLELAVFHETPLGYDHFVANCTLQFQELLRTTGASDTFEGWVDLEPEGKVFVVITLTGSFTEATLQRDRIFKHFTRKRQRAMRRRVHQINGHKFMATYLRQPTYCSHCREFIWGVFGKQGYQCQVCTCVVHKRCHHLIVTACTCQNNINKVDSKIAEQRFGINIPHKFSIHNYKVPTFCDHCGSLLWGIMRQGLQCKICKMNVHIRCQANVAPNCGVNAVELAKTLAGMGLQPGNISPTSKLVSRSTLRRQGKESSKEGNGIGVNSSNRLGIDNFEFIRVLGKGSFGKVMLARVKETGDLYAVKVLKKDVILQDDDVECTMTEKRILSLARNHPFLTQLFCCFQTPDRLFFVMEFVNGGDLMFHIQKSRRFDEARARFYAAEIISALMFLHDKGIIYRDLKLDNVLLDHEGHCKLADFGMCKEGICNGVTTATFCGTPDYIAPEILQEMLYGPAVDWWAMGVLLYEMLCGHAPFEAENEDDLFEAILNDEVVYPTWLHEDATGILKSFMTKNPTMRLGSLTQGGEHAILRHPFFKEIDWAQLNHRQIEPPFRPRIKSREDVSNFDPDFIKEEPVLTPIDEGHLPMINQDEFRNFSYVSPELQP
Protein kinase C delta type, sequence (Q05655 whole entry): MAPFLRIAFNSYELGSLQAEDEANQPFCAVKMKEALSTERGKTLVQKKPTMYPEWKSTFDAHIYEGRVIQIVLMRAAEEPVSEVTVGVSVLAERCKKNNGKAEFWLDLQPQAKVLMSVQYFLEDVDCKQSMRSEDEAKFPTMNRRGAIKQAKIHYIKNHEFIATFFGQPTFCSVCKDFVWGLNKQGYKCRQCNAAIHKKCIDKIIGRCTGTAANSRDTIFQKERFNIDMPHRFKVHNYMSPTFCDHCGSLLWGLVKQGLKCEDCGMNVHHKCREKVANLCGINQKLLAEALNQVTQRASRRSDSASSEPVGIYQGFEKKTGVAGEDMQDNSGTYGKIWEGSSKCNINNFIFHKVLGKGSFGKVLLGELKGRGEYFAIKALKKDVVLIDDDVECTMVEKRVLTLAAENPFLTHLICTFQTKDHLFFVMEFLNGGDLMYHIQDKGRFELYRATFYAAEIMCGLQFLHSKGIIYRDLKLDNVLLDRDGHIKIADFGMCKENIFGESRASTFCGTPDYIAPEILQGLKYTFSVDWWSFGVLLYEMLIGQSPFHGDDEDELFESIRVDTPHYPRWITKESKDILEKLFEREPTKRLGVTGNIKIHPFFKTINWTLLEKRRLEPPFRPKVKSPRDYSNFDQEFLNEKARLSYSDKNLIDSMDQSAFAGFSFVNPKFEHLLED
T2 sequence (P05771 whole entry): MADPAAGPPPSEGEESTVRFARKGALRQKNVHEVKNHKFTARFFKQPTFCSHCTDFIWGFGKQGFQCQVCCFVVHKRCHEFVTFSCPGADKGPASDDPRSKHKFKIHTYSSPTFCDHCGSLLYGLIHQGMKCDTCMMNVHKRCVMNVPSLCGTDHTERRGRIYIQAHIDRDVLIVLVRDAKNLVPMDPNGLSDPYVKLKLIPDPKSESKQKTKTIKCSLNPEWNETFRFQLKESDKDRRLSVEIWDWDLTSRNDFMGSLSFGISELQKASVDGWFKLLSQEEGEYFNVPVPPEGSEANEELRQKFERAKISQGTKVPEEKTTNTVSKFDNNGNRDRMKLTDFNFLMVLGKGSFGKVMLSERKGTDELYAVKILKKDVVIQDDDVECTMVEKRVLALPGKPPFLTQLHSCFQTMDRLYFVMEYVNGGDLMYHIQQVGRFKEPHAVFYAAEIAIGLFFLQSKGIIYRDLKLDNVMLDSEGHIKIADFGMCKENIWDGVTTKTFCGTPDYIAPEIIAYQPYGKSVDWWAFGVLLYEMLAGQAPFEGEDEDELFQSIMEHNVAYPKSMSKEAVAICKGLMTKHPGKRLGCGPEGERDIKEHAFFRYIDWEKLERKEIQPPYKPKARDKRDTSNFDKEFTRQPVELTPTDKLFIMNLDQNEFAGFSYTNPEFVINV

IC50 [1] | IC50 [2] | IC50 [3] | IC50 [4] | IC50 [5] | IC50 [6] | IC50 [7] | IC50 [8] | IC50 [9] | SMILES
– | 0.034 µM | 0.022 µM | 0.074 µM | 0.044 µM | – | 0.032 µM | 0.032 µM | 3.5 µM | O=C(N[C@@H]1CNCCCC1OC(=O)c1cc(O)c(C(=O)c2c(O)cccc2C(=O)O)c(O)c1)c1ccc(O)cc1 (mixture of isomers)
0.05 µM | 0.01 µM | 0.001 µM | 0.04 µM | 0.05 µM | – | 0.001 µM | 0.04 µM | – | O=C(NC1CCC[C@@H]1OC(=O)c1cc(O)c(C(=O)c2c(O)cccc2C(=O)O)c(O)c1)c1ccc(O)cc1 (mixture of isomers)
0.03 µM | 0.035 µM | 0.02 µM | 0.055 µM | 0.03 µM | 1.9 µM | 0.02 µM | 0.045 µM | – | O=C(NC1C2CCC(C2)C1OC(=O)c1cc(O)c(C(=O)c2c(O)cccc2C(=O)O)c(O)c1)c1ccc(O)cc1 (racemic)
1.5 µM | 10 µM | 4.5 µM | 24 µM | 6.9 µM | > 50 µM | 3.5 µM | 17 µM | – | O=C(NC1C2CCC(C2)C1OC(=O)c1cc(O)c(C(=O)c2c(O)cccc2C(=O)O)c(O)c1)c1ccc(O)cc1 (stereo in doubt)
27 µM | 4.6 µM | 2.8 µM | 34 µM | 14 µM | > 50 µM | 5 µM | 4.4 µM | > 50 µM | CN1C2CCC1C(NC(=O)c1ccc(O)cc1)C(OC(=O)c1cc(O)c(C(=O)c3c(O)cccc3C(=O)O)c(O)c1)C2 (stereo in doubt; anti)
0.17 µM | 0.17 µM | 0.026 µM | 0.415 µM | 0.069 µM | 2 µM | 0.112 µM | 0.026 µM | – | O=C(NC1CN2CCC(CC2)C1OC(=O)c1cc(O)c(C(=O)c2c(O)cccc2C(=O)O)c(O)c1)c1ccc(O)cc1 (stereo in doubt; anti)
0.97 µM | 0.05 µM | 0.05 µM | 0.1 µM | 0.03 µM | 32 µM | 0.05 µM | 0.15 µM | – | O=C(NC1C2CC(C3CCCC32)C1OC(=O)c1cc(O)c(C(=O)c2c(O)cccc2C(=O)O)c(O)c1)c1ccc(O)cc1 (stereo in doubt; anti)
49 µM | 16 µM | 2.5 µM | 35 µM | 22 µM | > 50 µM | 3.8 µM | 22 µM | > 50 µM | CN1C2CCC1C(NC(=O)c1ccc(O)cc1)C(OC(=O)c1cc(O)c(C(=O)c3c(O)cccc3C(=O)O)c(O)c1)C2 (stereo in doubt; syn)
14 µM | 4.6 µM | 0.49 µM | 12 µM | 34 µM | > 50 µM | 1 µM | 6.3 µM | – | O=C(NC1CN2CCC(CC2)C1OC(=O)c1cc(O)c(C(=O)c2c(O)cccc2C(=O)O)c(O)c1)c1ccc(O)cc1 (stereo in doubt; syn)
40 µM | 1.6 µM | 1.9 µM | 2.7 µM | 2.1 µM | > 50 µM | 2 µM | 3.3 µM | – | O=C(NC1C2CC(C3CCCC32)C1OC(=O)c1cc(O)c(C(=O)c2c(O)cccc2C(=O)O)c(O)c1)c1ccc(O)cc1 (stereo in doubt; syn)

SMILES | IC50 [1] | IC50 [2] | IC50 [3] | IC50 [4] | IC50 [5] | IC50 [6] | IC50 [7] | IC50 [8] | IC50 [9]
CC1(C)C2CCC1(C)C(OC(=O)c1cc(O)c(C(=O)c3c(O)cccc3C(=O)O)c(O)c1)C2NC(=O)c1ccc(O)cc1 (stereo not drawn) | 3.6 µM | 0.21 µM | 0.31 µM | 0.41 µM | 0.08 µM | 26 µM | 0.34 µM | 0.31 µM | > 50 µM
O=C(NC1CNC[C@@H]1OC(=O)c1cc(O)c(C(=O)c2c(O)cccc2C(=O)O)c(O)c1)c1ccc(O)cc1 (mixture of isomers) | 0.015 µM | 0.014 µM | 0.004 µM | 0.022 µM | 0.033 µM | 0.07 µM | 0.005 µM | 0.017 µM | > 0.15 µM
